Assay results reported in patent publication US20160227774A1 (priority 2015, published 2016).
Where “and” joins values, the source holds several entries; their conditions need not be identical. Equal entries are not always repeated. Structures can show the parent of a compound that is named as a salt. Where two headings read alike, the source gives them in different places.

Tests used:
[1] = tested on: Ca. Liberibacter asiaticus; assay type: in vivo, Candidatus Liberibacter asiaticus; settings: for CT, 1 (mean CT values 1-week after injection) / CT, 0 (mean CT values prior to injection): 4 trees; for CT, 0 (mean CT values prior to injection): baseline; for Effect on Las bacterial populations (in words): second trial, statistical significance only in the first trial
[2] = tested on: β-1,3-glucanase gene (PR-2), calS1, pp2; assay type: in vivo, Citrus sinensis; settings: 2-DDG 100 μM
Midsweet orange [3] = tested on: Midsweet orange; design: species or system Citrus sinensis; settings: in vivo
[4] = tested on: Candidatus Liberibacter asiaticus (Las); assay type: in vivo
[5] = tested on: Candidatus Liberibacter asiaticus (Las); assay type: in vivo; settings: BABA 1.0 mM, 2-DDG 100 μM; for Reduction of Las titer compared to control at the end of the experiments: Example 5, Murcott mandarin (10-year), foliar spraying
[6] = tested on: Candidatus Liberibacter asiaticus (Las); assay type: in vivo; settings: Example 6; Valencia sweet orange (4-year); BABA 0.2-1.0 mM, 2-DDG 100 μM; foliar spraying
HLB disease = assay: Trial I (Example 3): HLB disease severity (sAUDPS), Midsweet orange, foliar spray; assay type: in vivo, Citrus sinensis; settings: end of the experiment
[7] = tested on: Candidatus Liberibacter asiaticus (Las); assay type: in vivo; remark: listed apart in the source
[8] = tested on: β-1,3-glucanase gene (PR-2), calS1, pp2; assay type: in vivo, Citrus sinensis; settings: for PR-2, calS1 or pp2 gene expression (in words): AA 60 μM, INA 0.1 mM
Midsweet orange [9] = assay type: in vivo, Citrus sinensis; settings: BABA 150 μM, INA 0.5 mM, AA 600 μM, CuSO4 0.3 mM, alone or combined
[10] = Trial 1 (July, 2014), trunk injection SA 32, OA 40, PPD 40, ICD 67, OTC 50 mg ai/tree
[11] = Trial 2 (September, 2014), trunk injection SA 8, OTC 7, OA, PPD, ICD, AA, BABA 5 mg ai/tree
[12] = November 2013, BABA 0.2 mM, INA 0.1 mM, AA 60 μM, 2-DDG 10 μM
[13] = November 2013, BABA 1.0 mM, INA 0.5 mM, BTH 1.0 mM, AA 600 μM, 2-DDG 100 μM, alone or combined
[14] = October 2014 (end of the experiment), BABA 0.2 mM, INA 0.1 mM, AA 60 μM, 2-DDG 10 μM
[15] = October 2014 (end of the experiment), BABA 1.0 mM, INA 0.5 mM, BTH 1.0 mM, AA 600 μM, 2-DDG 100 μM, alone or combined
[16] = November 2013, BABA 15 μM, INA 0.1 mM, AA 60 μM

Compound | ΔCT = CT, 1 − CT, 0 [1, 10] | CT, 1 (mean CT values 1-week after injection) [1, 10] | CT, 0 (mean CT values prior to injection) [1, 10] | ΔCT = CT, 1 − CT, 0 [1, 11] | CT, 1 (mean CT values 1-week after injection) [1, 11] | CT, 0 (mean CT values prior to injection) [1, 11] | Effect on Las bacterial titer versus control one week after injection (in words) ([1]; trunk injection, both trials) | Las population [4, 12] | Las population [4, 14] | also measured
O=C(O)C(=O)O [OA, oxalic acid] | 2.83 | 26.59 | 23.76 | 0.70 | 26.17 | 25.47 | significantly reduced |  |  | ΔCT compared with that of OTC (in words) ([1]; trunk injection): not significantly different
O=C(O)c1ccccc1O [SA, salicylic acid] | 1.73 | 25.34 | 23.61 | 0.95 | 24.88 | 23.93 | significantly reduced |  |  | ΔCT compared with that of OTC (in words) ([1]; trunk injection): not significantly different
O=CC[C@@H](O)[C@H](O)[C@H](O)CO [2-DDG, 2-deoxy-D-glucose] |  |  |  |  |  |  |  | (4.45 ± 0.94) × 10^6 Cells/g of plant tissue | (0.91 ± 0.32) × 10^7 Cells/g of plant tissue | PR-2, pp2 or calS1 induction (in words) [2]: not able to induce; Fruit acidity (Midsweet orange [3]): 0.73 a percent citric acid and 0.67 a percent citric acid and 0.69 a percent citric acid and 0.66 a percent citric acid; Fruit brix (Midsweet orange [3]): 9.63 a and 10.41 a and 9.20 a and 10.10 a; Fruit brix acidity ratio (Midsweet orange [3]): 15.19 a and 13.19 a and 15.17 a and 13.33 a; Las population [4, 13]: (2.64 ± 0.76) × 10^6 Cells/g of plant tissue; Las population [4, 15]: (4.17 ± 1.02) × 10^6 Cells/g of plant tissue; Reduction of Las titer compared to control at the end of the experiments [5]: 0.66 log unit per gram plant tissue; Reduction of Las titer compared to control at the end of the experiments [6]: 0.70 log unit per gram plant tissue
O=C1O[C@H]([C@@H](O)CO)C([O-])=C1O.[Na+] [AA, L-Ascorbic acid sodium salt, reference compound] |  |  |  | −0.50 | 21.65 | 22.15 |  | (2.99 ± 0.95) × 10^6 Cells/g of plant tissue | (3.98 ± 0.81) × 10^6 Cells/g of plant tissue | Fruit brix acidity ratio (Midsweet orange [3]; sodium salt): 14.87 a and 12.55 a; Percent juice content (Midsweet orange [3]; sodium salt): 53.3 a and 51.1 a; HLB disease severity (sAUDPS) reduced by, compared with the negative control (HLB disease; AA 60 μM, BABA 15 μM): 21.3%; Las population ([5]; Feb.2015, AA 600 μM, INA 0.5 mM, BTH 1.0 mM): (3.12 ± 0.22) × 10^7 a Cells/g of leaf tissue; Las population [7, 16]: (3.56 ± 0.57) × 10^6 Cells/g of plant tissue; PR-2, calS1 or pp2 gene expression (in words) [8]: not able to induce
CN(C)[C@@H]1C(O)=C(C(N)=O)C(=O)[C@@]2(O)C(O)=C3C(=O)c4c(O)cccc4[C@@](C)(O)[C@H]3[C@H](O)[C@@H]12 [OTC, oxytetracycline hydrochloride, reference compound] | 1.33 | 29.28 | 27.95 | 0.90 | 25.54 | 24.64 |  |  |  | 
O=S(=O)([O-])[O-].[Cu+2] [CuSO4, Copper Sulphate] |  |  |  |  |  |  |  |  |  | Yield (Midsweet orange [9]; 2013): 28.4 c kg/tree; Yield (Midsweet orange [9]; 2014): 24.1 c kg/tree
O=C(O)c1cc(Cl)nc(Cl)c1 [INA, 2,6-dichloro-isonicotinic acid, reference compound] |  |  |  |  |  |  | did not statistically significantly reduce | (2.07 ± 0.33) × 10^6 Cells/g of plant tissue | (3.91 ± 0.85) × 10^6 Cells/g of plant tissue | Percent juice content (Midsweet orange [3]): 50.5 a and 51.1 a; Las population [7, 16]: (4.06 ± 0.25) × 10^6 Cells/g of plant tissue; Las population ([7]; October 2014 (end of the experiment), BABA 15 μM, INA 0.1 mM, AA 60 μM): (5.94 ± 0.36) × 10^6 Cells/g of plant tissue; PR-2, calS1 or pp2 gene expression (in words) [8]: not able to induce
CC(N)CC(=O)O (racemic) [BABA, β-aminobutyric acid] |  |  |  | 0.50 | 22.60 | 22.10 | greatly decreased | (3.45 ± 0.32) × 10^6 Cells/g of plant tissue | (5.84 ± 0.25) × 10^6 Cells/g of plant tissue | Reduction of Las titer compared to control at the end of the experiments ([4]; Example 4, Midsweet orange (8-year), BABA 0.2 mM, foliar spraying): 0.66 log unit per gram plant tissue; Las population [4, 13]: (4.23 ± 1.22) × 10^6 Cells/g of plant tissue; Las population [4, 15]: (0.95 ± 0.26) × 10^7 Cells/g of plant tissue; HLB disease severity (sAUDPS) reduced by, compared with the negative control (HLB disease; AA 60 μM, BABA 15 μM): 28.6%; HLB disease severity (sAUDPS) reduced by, compared with the negative control (HLB disease; BABA 150 μM): 21.4%; Reduction of Las titer compared to control at the end of the experiments [5]: 0.66 log unit per gram plant tissue; Reduction of Las titer compared to control at the end of the experiments [6]: 0.68 log unit per gram plant tissue; Reduction of Las titer compared to control at the end of the experiments ([7]; Example 3, Midsweet orange (7-year), BABA 15 μM-150 μM, foliar spraying): 0.63 log unit per gram plant tissue; Las population [7, 16]: (3.67 ± 0.59) × 10^6 Cells/g of plant tissue; Las population ([7]; November 2013, BABA 150 μM): (6.48 ± 0.61) × 10^6 Cells/g of plant tissue; PR-2 gene expression (in words) ([8]; BABA 150 μM, 6 days after treatment): no significant change; PR-2 gene expression compared to the negative control ([8]; in vivo): 3.0 fold; pp2 (phloem protein-2) or calS1 expression (in words) ([8]; in vivo): no effect
O=P([O-])([O-])O.[K+].[K+] [PPD, potassium phosphate dibasic, reference compound] | 2.64 | 26.56 | 23.92 | 0.34 | 23.63 | 23.29 |  |  |  | Effect on Las bacterial populations (in words) ([1]; trunk injection): moderately reduced
O=[N+]([O-])NC1=NCCN1Cc1ccc(Cl)nc1 [ICD, imidacloprid] | 0.08 | 24.50 | 24.42 | 0.13 | 24.02 | 23.89 |  |  |  | Effect on Las bacterial titer versus control one week after injection (in words) ([1]; in vivo): did not statistically significantly reduce
CSC(=O)c1cccc2nnsc12 [ASM, acibenzolar-S-methyl] |  |  |  |  |  |  |  |  |  | Effect on Las bacterial populations (in words) ([1]; trunk injection): moderately reduced
